Source: patent publication US8580811B2 (Ligand Pharmaceuticals Incorporated, priority 2005, dated 2013)

Target: T1, human AR (Homo sapiens, UniProt P10275)
T1 construct: expressed in transfected cells; host or cells: COS-1 cells
T1 sequence (P10275 1-920): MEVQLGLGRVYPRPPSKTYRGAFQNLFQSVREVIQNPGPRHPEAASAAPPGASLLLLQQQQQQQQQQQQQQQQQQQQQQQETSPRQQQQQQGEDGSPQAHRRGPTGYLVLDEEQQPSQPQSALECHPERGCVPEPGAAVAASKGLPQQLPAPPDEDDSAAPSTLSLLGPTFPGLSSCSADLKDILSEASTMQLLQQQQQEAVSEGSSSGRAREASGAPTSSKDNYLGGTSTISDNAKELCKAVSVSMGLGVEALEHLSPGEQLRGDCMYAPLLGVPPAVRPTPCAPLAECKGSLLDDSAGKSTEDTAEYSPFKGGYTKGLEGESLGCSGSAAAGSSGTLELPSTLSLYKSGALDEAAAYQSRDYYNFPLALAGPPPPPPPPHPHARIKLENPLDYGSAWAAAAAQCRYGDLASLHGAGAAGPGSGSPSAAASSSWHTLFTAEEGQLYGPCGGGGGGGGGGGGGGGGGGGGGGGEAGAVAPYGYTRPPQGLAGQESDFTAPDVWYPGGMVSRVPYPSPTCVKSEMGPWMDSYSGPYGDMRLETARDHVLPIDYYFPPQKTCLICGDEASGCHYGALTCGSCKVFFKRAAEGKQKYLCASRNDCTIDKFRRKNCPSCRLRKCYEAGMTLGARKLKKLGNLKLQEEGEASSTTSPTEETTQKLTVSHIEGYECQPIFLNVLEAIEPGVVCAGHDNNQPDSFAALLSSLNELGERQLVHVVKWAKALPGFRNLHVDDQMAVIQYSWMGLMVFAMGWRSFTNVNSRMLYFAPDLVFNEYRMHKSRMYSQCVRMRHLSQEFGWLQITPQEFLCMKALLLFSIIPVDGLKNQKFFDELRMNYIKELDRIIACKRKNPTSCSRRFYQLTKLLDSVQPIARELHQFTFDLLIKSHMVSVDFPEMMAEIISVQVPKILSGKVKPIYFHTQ
Assay: IR Binding Assay: whole cell competitive binding of test compounds against 3H-DHT in COS-1 cells transfected with pRShAR
Procedure: For the whole cell binding assay, COS-1 cells in 96-well microtiter plates including DMEM-10% FBS were transfected as described above with the following plasmid DNA: pRShAR (2 ng/well), pRS-β-Gal (50 ng/well) and pGEM (48 ng/well). Six hours after transfection, media was removed, the cells were washed with PBS and fresh media was added. The next day, the media was changed to DMEM-serum free to remove any endogenous ligand that might be complexed with the receptor in the cells.
After 24 hours in serum-free media, either a saturation analysis to determine the Kd for tritiated dihydrotestosterone (^3H-DHT) on human AR or a competitive binding assay to evaluate the ability of test compounds to compete with ^3H-DHT for AR was performed. […] For the competitive binding assay, media including 1 nM ^3H-DHT and test compounds in concentrations ranging from 10^−10 to 10^−6 M were added to the cells. Three replicates were used for each sample. After three hours at 37° C., an aliquot of the total binding media at each concentration of ^3H-DHT was removed to estimate the amount of free ^3H-DHT. The remaining media was removed, the cells were washed three times with PBS to remove unbound ligand, and cells were lysed with a Triton X-100-based buffer. The lysates were assayed for amount of bound ^3H-DHT and β-Gal activity using a scintillation counter or spectrophotometer, respectively.
For the saturation analyses, the difference between the total binding and the nonspecific binding, normalized by the β-Gal rate, was defined as specific binding. The specific binding was evaluated by Scatchard analysis to determine the Kd for ^3H-DHT. See e.g., D. Rodbard, “Mathematics and statistics of ligand assays: an illustrated guide” In: J. Langon and J. J. Clapp, eds., Ligand Assay, Masson Publishing U.S.A., Inc., New York, pp. 45-99, (1981), the disclosure of which is herein incorporated by reference. For the competition studies, the data was plotted as the amount of ^3H-DHT (% of control in the absence of test compound) remaining over the range of the dose-response curve for a given compound. […] The Ki values were determined by application of the Cheng-Prusoff equation to the IC50 values, where:
[formula] After correcting for non-specific binding, IC50 values were determined. […] The IC50 value was determined graphically from a log-logit plot of the data. The Ki values were determined by application of the Cheng-Prusoff equation to the IC50 values, the labeled ligand concentration and the Kd of the labeled ligand. see e.g., Cheng, Y. C. and Prusoff, W. H. Biochem. Pharmacol. 22:3099 (1973).

Compound: Cc1c(C)n(C[C@@H](O)CO)c2ccc3[nH]c(=O)cc(Cl)c3c12 [Compound 292, (R)-9-Chloro-3-(2,3-dihydroxypropyl)-1,2-dimethyl-3,6-dihydro-pyrrolo[3,2-f]-quinolin-7-one]
- Ki: > 10 nM

Compound: CCc1c(C)c2c3c(C(F)(F)F)cc(=O)[nH]c3ccc2n1CCCC(F)(F)F [Compound 228, 2-Ethyl-1-methyl-3-(4,4,4-trifluorobutyl)-9-trifluoromethyl-3,6-dihydro-pyrrolo[3,2-f]-quinolin-7-one]
- Ki: < 5 nM

Compound: Cc1c(-c2ccccc2F)n(CC(F)(F)F)c2ccc3[nH]c(=O)cc(Cl)c3c12 [Compound 199, 9-Chloro-2-(2-fluorophenyl)-1-methyl-3-(2,2,2-trifluoroethyl)-3,6-dihydro-pyrrolo[3,2-f]quinolin-7-one]
- Ki: < 5 nM

Compound: CC1c2c(ccc3[nH]c(=O)cc(Cl)c23)N(CC(F)(F)F)C1c1ccc(Cl)c(Cl)c1 (racemic) [Compound 157, (±)-9-Chloro-2-(3,4-dichlorophenyl)-1-methyl-3-(2,2,2-trifluoroethyl)-1,2,3,6-tetrahydropyrrolo[3,2-f]quinolin-7-one]
- Ki: < 5 nM

Compound: Cc1c(-c2ccccc2)n(C[C@@H](O)C(F)(F)F)c2ccc3[nH]c(=O)cc(Cl)c3c12 [Compound 280, 9-Chloro-1-methyl-2-phenyl-3-(3,3,3-trifluoro-2-hydroxy-propyl)-3,6-dihydro-pyrrolo[3,2-f]quinolin-7-one]
- Ki: > 10 nM

Compound: Cc1ccc(-c2c(C)c3c4c(Cl)cc(=O)[nH]c4ccc3n2C[C@@H](O)C(F)(F)F)o1 [Compound 284, (R)-9-Chloro-1-methyl-2-(5-methylfuran-2-yl)-3-(3,3,3-trifluoro-2-hydroxy-propyl)-3,6-dihydro-pyrrolo[3,2-f]quinolin-7-one]
- Ki: < 5 nM

Compound: Cc1ccc(-c2c(C)c3c4c(Cl)cc(=O)[nH]c4ccc3n2CC(F)(F)C(F)(F)F)s1 [Compound 268, 9-Chloro-1-methyl-2-(5-methylthiophen-2-yl)-3-(2,2,3,3,3-pentafluoropropyl)-3,6-dihydro-pyrrolo[3,2-f]quinolin-7-one]
- Ki: < 5 nM

Compound: CC1c2c(ccc3[nH]c(=O)cc(C(F)(F)F)c23)N(CC(F)(F)C(F)(F)F)C1C (racemic) [Compound 173, (±)-1,2-Dimethyl-3-(2,2,3,3,3-pentafluoropropyl)-9-trifluoromethyl-1,2,3,6-tetrahydro-pyrrolo[3,2-f]quinolin-7-one]
- Ki: < 5 nM

Compound: CCc1c(C)c2c3c(Cl)cc(=O)[nH]c3ccc2n1CCC(F)(F)F [Compound 216, 9-Chloro-2-ethyl-1-methyl-3-(3,3,3-trifluoropropyl)-3,6-dihydro-pyrrolo[3,2-f]quinolin-7-one]
- Ki: < 5 nM

Compound: Cc1c(C)n(C[C@@H](O)CO)c2ccc3[nH]c(=O)cc(C(F)(F)F)c3c12 [Compound 296, (R)-3-(2,3-dihydroxypropyl)-1,2-dimethyl-9-trifluoromethyl-3,6-dihydro-pyrrolo[3,2-f]-quinolin-7-one]
- Ki: > 10 nM

Compound: CCc1c(C)n(CC(F)(F)F)c2ccc3[nH]c(=O)cc(Cl)c3c12 [Compound 185, 9-Chloro-1-ethyl-2-methyl-3-(2,2,2-trifluoroethyl)-3,6-dihydro-pyrrolo[3,2-f]quinolin-7-one]
- Ki: < 5 nM

Compound: Cc1c(-c2cccs2)n(CC(F)(F)F)c2ccc3[nH]c(=O)cc(Cl)c3c12 [Compound 207, 9-Chloro-1-methyl-2-thien-2-yl-3-(2,2,2-trifluoroethyl)-3,6-dihydro-pyrrolo[3,2-f]quinolin-7-one]
- Ki: < 5 nM

Compound: Cc1c(C)n(CC(O)C(F)(F)F)c2ccc3[nH]c(=O)cc(C(F)(F)F)c3c12 (racemic) [Compound 243, (±)-1,2-Dimethyl-3-(3,3,3-trifluoro-2-hydroxy-propyl)-9-trifluoromethyl-3,6-dihydro-pyrrolo[3,2-f]-quinolin-7-one]
- Ki: < 5 nM

Compound: CCc1c(C)c2c3c(C(F)(F)F)cc(=O)[nH]c3ccc2n1CC(F)(F)C(F)(F)F [Compound 225, 2-Ethyl-1-methyl-3-(2,2,3,3,3-pentafluoropropyl)-9-trifluoromethyl-3,6-dihydro-pyrrolo[3,2-f]-quinolin-7-one]
- Ki: < 5 nM

Compound: CC1c2c(ccc3[nH]c(=O)cc(Cl)c23)N(CC(F)(F)F)C1c1ccc(Cl)cc1 (racemic) [Compound 152, (±)-9-Chloro-2-(4-chlorophenyl)-1-methyl-3-(2,2,2-trifluoroethyl)-1,2,3,6-tetrahydro-pyrrolo[3,2-f]quinolin-7-one]
- Ki: > 10 nM

Compound: Cc1c(C)n(CCCC(F)(F)F)c2ccc3[nH]c(=O)cc(C(F)(F)F)c3c12 [Compound 227, 1,2-Dimethyl-3-(4,4,4-trifluorobutyl)-9-trifluoromethyl-3,6-dihydro-pyrrolo[3,2-f]-quinolin-7-one]
- Ki: < 5 nM

Compound: Cc1[nH]c2ccc3[nH]c(=O)cc(Cl)c3c2c1C [Compound 105, 9-Chloro-1,2-dimethyl-3,6-dihydro-pyrrolo[3,2-f]quinolin-7-one]
- Ki: < 5 nM

Compound: Cc1ccc(-c2c(C)c3c4c(Cl)cc(=O)[nH]c4ccc3n2CC(F)(F)F)s1 [Compound 258, 9-Chloro-1-methyl-2-(5-methyl-2-thiophenyl)-3-(2,2,2-trifluoroethyl)-3,6-dihydro-pyrrolo[3,2-f]quinolin-7-one]
- Ki: < 5 nM

Compound: Cc1cc2c3c(Cl)cc(=O)[nH]c3ccc2n1CC(F)(F)F [Compound 186, 9-Chloro-2-methyl-3-(2,2,2-trifluoroethyl)-3,6-dihydro-pyrrolo[3,2-f]quinolin-7-one]
- Ki: 5 to 10 nM

Compound: CCCC1c2c(ccc3[nH]c(=O)cc(Cl)c23)N(CC(F)(F)F)C1C (racemic) [Compound 165, (±)-9-Chloro-2-methyl-1-propyl-3-(2,2,2-trifluoroethyl)-1,2,3,6-tetrahydro-pyrrolo[3,2-f]-quinolin-7-one]
- Ki: < 5 nM

Compound: CC1c2c(ccc3[nH]c(=O)cc(Cl)c23)N(CC(F)(F)F)C1c1cccc([N+](=O)[O-])c1 (racemic) [Compound 154, (±)-9-Chloro-1-methyl-2-(3-nitrophenyl)-3-(2,2,2-trifluoroethyl)-1,2,3,6-tetrahydro-pyrrolo[3,2-f]quinolin-7-one]
- Ki: > 10 nM

Compound: Cc1c(-c2ccc(F)cc2)n(CC(F)(F)F)c2ccc3[nH]c(=O)cc(Cl)c3c12 [Compound 194, 9-Chloro-2-(4-fluorophenyl)-1-methyl-3-(2,2,2-trifluoroethyl)-3,6-dihydro-pyrrolo[3,2-f]quinolin-7-one]
- Ki: < 5 nM

Compound: Cc1ccc(-c2c(C)c3c4c(Cl)cc(=O)[nH]c4ccc3n2CC(F)(F)C(F)(F)F)o1 [Compound 267, 9-Chloro-1-methyl-2-(5-methylfuran-2-yl)-3-(2,2,3,3,3-pentafluoropropyl)-3,6-dihydro-pyrrolo[3,2-f]quinolin-7-one]
- Ki: 5 to 10 nM

Compound: O=c1cc(Cl)c2c3c(ccc2[nH]1)N(CC(F)(F)F)C1CCCC31 (racemic) [Compound 126, (±)-9-Chloro-3-(2,2,2-trifluoro-ethyl)-1,2-trimethylene-1,2,3,6-tetrahydro-pyrrolo[3,2-f]-quinolin-7-one]
- Ki: < 5 nM

Compound: Cc1c[nH]c2ccc3[nH]c(=O)cc(Cl)c3c12 [Compound 114, 9-Chloro-1-methyl-3,6-dihydro-pyrrolo[3,2-f]quinolin-7-one]
- Ki: > 10 nM
